Measurements as given in US20220313677A1, “METHODS FOR TREATING LIVER DISORDERS USING FXR AGONISTS” (Novartis AG, priority 2016, published 2022).
Values after ≈ are worked out from the molar mass of the structure shown. “Also recorded” adds a separate entry of the source.

What was measured:
[1] = Single oral dose plasma pharmacokinetics in healthy subjects; assay type: in vivo, human; conditions: fasted, mean
[2] = Estimation of human efficacious dose from rat efficacious exposure and human PK; assay type: in vivo; conditions: human, plasma, oral; at dose of ~6 μg; read-out: Cmax at estimated human efficacious dose
Description: The human efficacy dose was calculated based on the efficacious exposure in the rat ANIT-induced disease model. Since the in vitro potency and protein binding between human and rat were similar, the EC80 exposure in human was assumed to be the same as that in rat (3.05 ng*h/mL).

[3] = Safety and tolerability in clinical study; assay type: in vivo, human
Excerpt: Elevated ALT resolved to within normal levels within 14 days and without intervention.

FGF15 = test: Serum FGF15 (MSD assay) in chronic treatment rat ANIT model; assay type: in vivo
Description: Serum FGF15 levels were quantified using an FGF15 Meso Scale Discovery (MSD) assay. Mouse FGF15 antibody from R&D Systems (AF6755) was used both as capture and detection antibody in the assay. MSD SULFO-TAG NHS-Ester was used to label the FGF15 antibody. MSD standard 96-well plates were coated with the FGF15 capture antibody and the plates were blocked with MSD Blocker A (R93AA-2). After washing the plate with PBS+0.05% Tween 20, MSD diluent 4 was dispensed into each well and incubated for 30 min. 25 μl of calibrator dilutions or samples (serum or EDTA plasma) were dispensed into each well and incubated with shaking at RT. After washing, detection antibody was added and incubated with shaking for 1 h at RT. After washing and the addition of MSD Read buffer (R92TC-2), the plate was read on an MSD SECTOR Imager 6000. Plots of the standard curve and unknown samples were calculated using MSD data analysis software.
Activation of FXR in the ileum induces the expression of fibroblast growth factor 15 (FGF15 in rodent; FGF19 in human), a hormone that is secreted in the portal blood and signals to the liver to repress Cyp7a1 expression synergistically with SHP. The direct FXR-dependent induction of FGF15/19 along with FGF15/19's anti-cholestatic properties makes it a convenient serum biomarker for detecting target engagement of FXR agonists.

[4] = system: rat ANIT-induced cholestasis model; test: Chronic treatment rat ANIT model: serum markers of cholestasis and liver damage; assay type: in vivo; conditions: 14 days oral dosing; AST, ALT, bilirubin, bile acids in serum
Description: Rats were treated with alpha-naphthyl-isothiocyanate (ANIT) (0.1% w/w) in food for 3 days prior to treatment with the compound at the indicated doses or with vehicle control (“Veh”). A non-cholestatic control group was fed standard chow diet without ANIT, and serve as the non-cholestatic control animals (“Control”). After 14 days of oral dosing, the indicated analyte was measured in serum. LLQ, lower limit of quantitation. Mean±SEM; n=5.
(§1) Male Wistar rats were treated with ANIT (0.1% ANIT in chow diet) for 2 weeks. […] The serum samples were collected on day 14 for analysis of biomarkers of hepatobiliary injury (including ALT, AST, bilirubin and bile acids). The PK samples (pre-dose, 0.5, 1, 3, 7, 10 and 24 h, n=3/dose group) were taken on day 13 (at steady-state).

[5] = system: rat ANIT-induced cholestasis model; test: PK/PD modeling of effective exposure in rat ANIT model; assay type: in vivo; conditions: for IC80 (total bilirubin): 2-week rat ANIT chronic treatment model, serum total bilirubin, Inhibitory effect Imax model
Description: as §1
The mean biomarker data were compared to the PK data (average concentration at each dose) for the modeling. The IC80 was determined using the Inhibitory effect Imax model (effect C=0 at Imax, C=infinity at E0) built in Phoenix WinNonlin 6.3 software. […] Therefore, we chose to use a mean of the IC80 for the four biomarkers (total bilirubin, total bile acids, ALT and AST) as the IC80 for efficacy in this model. From these studies, the IC80 of LJN452 was 0.127 ng/ml and the corresponding AUCO-24h was 3.05 ng*h/ml (Table 1), and the corresponding efficacious dose is approximately 0.01 mg/kg (based on Table 1 and Table 2).
The PK samples (pre-dose, 0.5, 1, 3, 7, 10 and 24 h, n=3/dose group) were taken on day 13 (at steady-state). AUCO-24h was determined using Phoenix WinNonlin 6.3 software and the average concentrations were calculated from mean of AUCO-24h at each dose (divided the AUCO-24h by 24 h). The individual biomarker data were compared to the PK data (average concentration at each dose) for the modeling. Since the lowest dose (0.01 mg/kg) already approached maximal efficacy, the IC80 was chosen as the measurement of the efficacious exposure (Table 1). The IC80 was determined using the Inhibitory effect Imax model (effect C=0 at Imax, C=infinity at E0) built in Phoenix WinNonlin 6.3 software.

[6] = Multiple oral dose plasma pharmacokinetics in healthy subjects
FGR5 = FGR5 effects
[7] = clinical studies; cited from earlier work
[8] = maximal drug effect, rat ANIT model
[9] = exposures for doses 10-100 μg normalized to 10 μg

Which results are given for O=C(O)c1cc(F)c2nc(N3C4CC[C@H]3CC(OCc3c(-c5ccccc5OC(F)(F)F)noc3C3CC3)C4)sc2c1 (stereo partly drawn) [Compound A, 2-[(1R,3r,5S)-3-({5-cyclopropyl-3-[2-(trifluoromethoxy)phenyl]-1,2-oxazol-4-yl}methoxy)-8-azabicyclo[3.2.1]octan-8-yl]-4-fluoro-1,3-benzothiazole-6-carboxylic acid]?
AUCinf ([1]; single dose 10 μg): 3.39 ng·h/mL; AUClast ([1]; single dose 10 μg): 2.79 ng·h/mL; Cmax ([1]; single dose 10 μg): 0.186 ng/mL; T½ ([1]; single dose 10 μg): 14.9 h; AUCinf ([1]; single dose 30 μg): 13.4 ng·h/mL; AUClast ([1]; single dose 30 μg): 12.7 ng·h/mL; Cmax ([1]; single dose 30 μg): 0.627 ng/mL; T½ ([1]; single dose 30 μg): 13.7 h; AUCinf ([1]; single dose 100 μg): 37.9 ng·h/mL; AUClast ([1]; single dose 100 μg): 34.8 ng·h/mL; Cmax ([1]; single dose 100 μg): 1.73 ng/mL; T½ ([1]; single dose 100 μg): 13.5 h; AUCinf ([1]; single dose 300 μg): 123 ng·h/mL; AUClast ([1]; single dose 300 μg): 119 ng·h/mL; Cmax ([1]; single dose 300 μg): 6.41 ng/mL; T½ ([1]; single dose 300 μg): 15.3 h; AUCinf ([1]; single dose 1000 μg): 482 ng·h/mL; AUClast ([1]; single dose 1000 μg): 416 ng·h/mL; Cmax ([1]; single dose 1000 μg): 22.1 ng/mL; T½ ([1]; single dose 1000 μg): 21.9 h; AUCinf ([1]; single dose 3000 μg): 933 ng·h/mL; AUClast ([1]; single dose 3000 μg): 888 ng·h/mL; Cmax ([1]; single dose 3000 μg): 54.2 ng/mL; T½ ([1]; single dose 3000 μg): 16.5 h; Cmax [2]: ~0.2 ng/mL; ALP or bilirubin elevation ([3]; 100 μg repeated daily): no elevation; findings in physical exam, vital signs or ECGs ([3]; clinical study): No significant findings; tolerability in repeated daily administration ([3]; doses up to and including 60 μg): well tolerated; serum FGF15 (FGF15): stimulated serum FGF15 expression; also recorded: Significant dose-dependent induction; dose from which hepatobiliary injury indicators improved [4]: ≥ 0.01 mg/kg; IC80 (total bilirubin) [5]: 0.223 ng/mL (≈ 0.369 nM); IC80 (total bilirubin) ([5]; listed as LJN452): 8.223 ng/mL (≈ 13.6 nM); Imax (ALT) [5, 8]: 84.2 U/L; Imax (AST) [5, 8]: 140.3 U/L; Imax (total bile acids) [5, 8]: 125.5 µmol/L; Imax (total bilirubin) [5, 8]: 2.0 mg/dL; average AUCtau at day 13 for a dose level of 10 μg [6, 9]: 4.84 ng·h/mL; average Cmax at day 13 for a dose level of 10 μg [6, 9]: 0.32 ng/mL; dose proportionality of exposure (Cmax and AUC) ([6]; once daily dosing, dose range 10 μg to 100 μg): approximately dose-proportional increase; also recorded: approximately dose proportional increase; time by which steady-state was reached ([6]; once daily oral dosing, trough levels): ≤ 4 days; FGR5 effects (FGR5): no FGR5 effects; FGF19 elevations (FGF19; 30 μg/day): consistent with pharmacological activity in NASH; FGF19 dose dependence (FGF19; single dose studies 10 μg to 1 mg): Dose-dependent increases

Which pruritus [7] does the source give for CC[C@H]1[C@@H](O)[C@@H]2[C@H](CC[C@]3(C)[C@@H]([C@H](C)CCC(=O)O)CC[C@@H]23)[C@@]2(C)CC[C@@H](O)C[C@@H]12 [OCA, 6α-ethyl-chenodeoxycholic acid] here?
Its pruritus is “increased pruritus”.
